Measurements taken from patent publication US20250009706A1, “COMPOSITIONS AND METHODS FOR TREATING OPIOID DEPENDENCE AND WITHDRAWAL” (CASE WESTERN RESERVE UNIVERSITY, priority 2021, published 2025).

How the values were obtained:
morphine dependent rats = assay: Naloxone-precipitated withdrawal responses in morphine dependent rats; format: in vivo, rat
Protocol: Rats received a depot subcutaneous injection of morphine (150 mg/kg) with or without continuous infusion of D-CYSee (20 μmol/kg/hour, IV) and one day later the rats received an intraperitoneal injection of naloxone HCl (1.5 mg/kg) to elicit withdrawal responses.

[1] = system: morphine-exposed mouse pups; assay: Neonatal opioid withdrawal syndrome (NOWS): naloxone-precipitated somatic signs in morphine-exposed mouse pups; format: in vivo; details: D-CYSee 30 mg/kg s.c. given prior to naloxone 1.0 mg/kg
Protocol: FIG. 2 illustrates a schematic timeline of an assay of neonatal morphine exposure of female mice for determining neonatal opioid withdrawal syndrome (NOWS). Female mice are implanted with osmotic mini-pumps containing 20 mg/kg/day morphine sulfate and mated. Offspring are injected twice daily with 10 mg/kg morphine for 14 days.
FIG. 4 illustrates a graph showing D-CYSee modulates NOWS. […] D-CYSee (30 mg/kg s.c.) given prior to naloxone (1.0 mg/kg) reduces all somatic signs of withdrawal except for jumping behavior, which is enhanced.

[2] = rats, D-CYSee 20 μmol/kg/hour IV, naloxone HCl 1.5 mg/kg i.p.

With `CCOC(=O)[C@H](N)CS` [D-CYSee, D-cysteine ethyl ester] the withdrawal responses (morphine dependent rats; morphine 150 mg/kg depot s.c., D-CYSee 20 μmol/kg/hour IV continuous infusion, naloxone HCl 1.5 mg/kg i.p. one day later) was “markedly diminishes”, the “change in mean arterial blood pressure” value (morphine dependent rats; [2]) was “attenuated” and the circling behavior (morphine dependent rats; [2]) was “attenuated”. For the same compound, the episodes of apneas (morphine dependent rats; [2]) was “attenuated”, the “episodes of fore-paw licking” value (morphine dependent rats; [2]) was “attenuated” and the episodes of sneezing (morphine dependent rats; [2]) was “attenuated”. For the same compound, the jumping behavior (morphine dependent rats; [2]) was “attenuated”, the rearing behavior (morphine dependent rats; [2]) was “attenuated” and the body tremors [1] was “reduces”. For the same compound, the “jumps (jumping behavior)” value [1] was “enhanced”, the paw tremors [1] was “reduces” and the wall climbs [1] was “reduces”.
